Data set [1] concerns the target T1, Liver carboxylesterase (Sus scrofa, UniProt Q29550).
T1 sequence (Q29550 whole entry): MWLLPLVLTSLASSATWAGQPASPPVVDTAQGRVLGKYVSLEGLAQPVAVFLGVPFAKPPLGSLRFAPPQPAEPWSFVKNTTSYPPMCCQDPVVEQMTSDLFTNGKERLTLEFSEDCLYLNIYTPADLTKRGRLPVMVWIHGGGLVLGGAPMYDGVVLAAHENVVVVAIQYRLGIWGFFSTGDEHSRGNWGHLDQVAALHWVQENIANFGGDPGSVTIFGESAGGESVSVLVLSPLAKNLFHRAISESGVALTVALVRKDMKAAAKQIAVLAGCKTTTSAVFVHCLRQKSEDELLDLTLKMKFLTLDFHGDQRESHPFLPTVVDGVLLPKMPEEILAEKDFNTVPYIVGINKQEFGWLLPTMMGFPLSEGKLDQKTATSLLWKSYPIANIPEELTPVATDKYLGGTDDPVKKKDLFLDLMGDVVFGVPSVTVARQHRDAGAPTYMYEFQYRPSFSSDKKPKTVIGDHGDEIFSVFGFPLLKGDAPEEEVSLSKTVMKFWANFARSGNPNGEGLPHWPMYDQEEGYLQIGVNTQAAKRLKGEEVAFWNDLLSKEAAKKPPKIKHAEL
As to the kind of experiment: Drug metabolism in PBS assessed as porcine liver esterase mediated compound hydrolysis by measuring half life at 500 uM by UPLC method. As to conditions: pig. In kind it is ADME.

For data set [2], the target named is T1, Liver carboxylesterase. Nature of the data set: Drug metabolism in PBS assessed as porcine liver esterase mediated H2S release at 500 uM by methylene blue assay. In kind it is ADME. As to conditions: pig, isolated protein.
Data set [3] has as its system Mus musculus. Nature of the data set: Neuroprotective activity against MCAO induced C57BL/6J mouse assessed as reduction in infarct area at 100 umol/kg measured after 24 hrs by TTC staining based analysis. Further details: scale not given: the % may be the effect or the level left. As to conditions: dose 100 µmol/kg. The format is functional.
Data set [4] deals with Mus musculus. Nature of the data set: Induction of iron-sulfur cluster related genes transcriptional level in MCAO induced C57BL/6J mouse at 100 umol/kg measured after 24 hrs. As to conditions: dose 100.0 µmol/kg. In kind it is functional, organism-based.
A short description of data set [5]: Drug concentration in Sprague-Dawley rat plasma at 80 umol/kg, iv measured after 1 min by LC-MS/MS analysis. The settings on record: dose 80 µmol/kg. The format is ADME, organism-based.
A short description of data set [6]: Downregulation of MDA level in MCAO induced C57BL/6J mouse at 100 umol/kg measured after 24 hrs (reference value: 15.1 +/- 0.5 nmol/mg). In kind it is functional. The settings on record: dose 100 µmol/kg.
The next data set in a line: cells. In kind it is functional, PC12. As to conditions: Homo sapiens, PC-12.
Data set [7] is described as follows: Drug metabolism in Sprague-Dawley rat assessed as Sodium 2-(1-acetoxypentyl)benzothioate level at 80 umol/kg, iv measured after 1 min by LC-MS/MS analysis. In kind it is ADME, organism-based. As to conditions: in vivo, dose 80 µmol/kg.
Data set [8] can be described thus: Cytotoxicity against […] PC12 cells upto 500 uM. The format is toxicity, cell-based. The settings on record: pc12, 500 µM.
Data set [9] can be described thus: Drug metabolism in Sprague-Dawley rat plasma assessed as 2-(1-acetoxypentyl)benzoic acid level at 80 umol/kg, iv measured after 1 min by LC-MS/MS analysis. In kind it is ADME, organism-based. The settings on record: in vivo, dose 80 µmol/kg.
Data set [10] in a line: Drug metabolism in Sprague-Dawley rat plasma assessed as 3-butylisobenzofuran-1(3H)-thione level at 80 umol/kg, iv measured after 1 min by LC-MS/MS analysis. In kind it is ADME, organism-based. The settings on record: in vivo, dose 80 µmol/kg.
For data set [11], the species on record is Mus musculus. As to the kind of experiment: Neuroprotective activity against MCAO induced C57BL/6J mouse cerebral ischemia model assessed as upregulation of genes related to neuroprotection by GSEA. The format is functional, organism-based.
For data set [12], the system named is Mus musculus. Nature of the data set: Downregulation of oxidative stress related genes expression in MCAO induced C57BL/6J mouse at 100 umol/kg measured after 24 hrs by GSEA. The format is functional, organism-based. The settings on record: dose 100.0 µmol/kg.
The species entered for data set [13] is Mus musculus. Nature of the data set: Neuroprotective activity against MCAO induced C57BL/6J mouse cerebral ischemia model assessed as appearance of high density nissl bodies in thalamic region. In kind it is functional, organism-based.
The species entered for data set [14] is Mus musculus. As to the kind of experiment: Neuroprotective activity against MCAO induced C57BL/6J mouse cerebral ischemia model assessed as reduction in nuclear leakage. The format is functional, organism-based.
The species entered for data set [15] is Mus musculus. As to the kind of experiment: Neuroprotective activity against MCAO induced C57BL/6J mouse cerebral ischemia model assessed as NeuN expression by immunofluorescence assay. In kind it is functional, organism-based.
Data set [16] deals with Mus musculus. Nature of the data set: Induction of iron-sulfur cluster related genes transcriptional level in MCAO induced C57BL/6J mouse at 100 umol/kg measured after 24 hrs by GSEA. In kind it is functional, organism-based. The settings on record: dose 100.0 µmol/kg.
Data set [17] is filed under the species Mus musculus. Nature of the data set: Neuroprotective activity against MCAO induced C57BL/6J mouse cerebral ischemia model assessed as appearance of high density nissl bodies in hippocampal region. The format is functional, organism-based.
The species named for data set [18] is Mus musculus. Nature of the data set: Neuroprotective activity against MCAO induced C57BL/6J mouse cerebral ischemia model assessed as cleaved caspase-3 expression by immunofluorescence assay. In kind it is functional, organism-based.
Data set [19] is filed under the species Mus musculus. As to the kind of experiment: Neuroprotective activity against MCAO induced C57BL/6J mouse cerebral ischemia model assessed as upregulation of genes related to dopaminergic neuron differentiation by GSEA. The format is functional, organism-based.
The test system of data set [20] is Mus musculus. As to the kind of experiment: Downregulation of abnormal ion channel activation related genes expression in MCAO induced C57BL/6J mouse at 100 umol/kg measured after 24 hrs by GSEA. The format is functional. As to conditions: dose 100.0 µmol/kg.
For a further data set, the system named is PC12. As to the kind of experiment: Neuroprotective activity against ischemia/hypoxia induced cell injury in […] PC12 cells assessed as increase in cell viability at 10 to 20 uM by MTT assay. In kind it is functional, cell-based. As to conditions: dose 10-20 µM. (Tetrazolium assays rely on reduction of a dye to a coloured formazan, in cell work by metabolically active cells.)

Data set [21] can be described thus: Drug metabolism in Sprague-Dawley rat assessed as 3-butylisobenzofuran-1(3H)-one level at 80 umol/kg, iv measured after 1 min by LC-MS/MS analysis. In kind it is ADME, organism-based. As to conditions: in vivo, dose 80 µmol/kg.
A short description of data set [22]: Drug concentration in Sprague-Dawley rat at 80 umol/kg, iv measured after 1 min by LC-MS/MS analysis. In kind it is ADME, organism-based. As to conditions: in vivo.
The nature of data set [23]: Drug metabolism in Sprague-Dawley rat assessed as Sodium 2-(1-((3-methylbutanoyl)oxy)pentyl)benzothioate level at 80 umol/kg, iv measured after 1 min by LC-MS/MS analysis. In kind it is ADME, organism-based. The settings on record: in vivo, dose 80 µmol/kg.

The term half-life denotes how long it takes for the measured level to halve. For orientation: viability means the share of living cells, or the viability signal relative to a control.

Activity calls are given as the source filed them. The calls are words filed in the database; no cut-off is given here.

With `CCCCC(OC(=O)CC(C)C)c1ccccc1C(=O)[S-].[Na+]` (stereo not given), the half-life at 500 µM at Liver carboxylesterase [1] was found to be 6.42 h. The Drug metabolism on Liver carboxylesterase [2] amounted to 31 µM.

For `CCCCC(OC(=O)C(C)C)c1ccccc1C(=O)[S-].[Na+]` (stereo not given), the half-life at 500 µM at Liver carboxylesterase [1] was found to be 15 h.

For the compound `CCCCC(OC(C)=O)c1ccccc1C(=O)SSCC(NC(C)=O)C(=O)O` (stereo not given), the Activity is 20.6% with Mus musculus [3], 9.9 nmol/mg in data set [6] and “Non-Toxic” in data set [8]. Besides, the outcome in the data set on Mus musculus [4] was inactive. The concentration at 1 min in data set [5] is 151 µg/mL. The viability at 10 µM in the data set “cells” stood at 86.2%. The half-life at 500 µM at Liver carboxylesterase [1] was 2.98 h. For the same compound, the Drug metabolism was found to be 105.9 µg/mL in [7], 44.4 µg/mL in [9] and 34.4 µg/mL in [10].

On to `CCCCC(OC(C)=O)c1ccccc1C(=O)O` (stereo not given), for which the Activity in the data set with Mus musculus [3] amounted to 20.6%; in data set [6], 9.4 nmol/mg. In “cells”, this compound showed a viability at 10 µM of 86.4%.

Regarding `CCCCC(OC(=O)CC)c1ccccc1C(=O)SSCC(NC(C)=O)C(=O)[O-].[Na+]` (stereo not given), the half-life at 500 µM at Liver carboxylesterase [1] was found to be 0.333 h.

`CCCCC(OC(C)=O)c1ccccc1C(=O)[S-].[Na+]` (stereo not given): the result in the data set listed under Mus musculus [11], with Mus musculus [12], in the data set with Mus musculus [4], in the data set listed under Mus musculus [13], in the data set listed under Mus musculus [14] and in the data set filed under Mus musculus [15] was Active. The result in the data set on Mus musculus [16], in the data set listed under Mus musculus [17], in the data set listed under Mus musculus [18], in the data set listed under Mus musculus [19], in the data set on Mus musculus [20] and with PC12 was Active. The Activity with Mus musculus [3] is listed as 13.8%; in data set [6] it was 6.3 nmol/mg; in data set [8] it was “Non-Toxic”. This compound also gave a concentration at 1 min in data set [5] of 216 µg/mL. This compound also came in with a viability at 10 µM in “cells” of 92.5%. Further, on Liver carboxylesterase [1], the half-life at 500 µM is 23.3 h. Also, the Drug metabolism is 23.6 µg/mL in data set [9], 2.8 µM at Liver carboxylesterase [2] and 35.5 µg/mL in data set [10].

As to `CCCCC1OC(=S)c2ccccc21` (stereo not given), the Drug metabolism in data set [21] amounted to 1.2 µg/mL. In addition, the concentration at 1 min in data set [22] (Sprague-Dawley, 80 umol/kg, read-out: Drug uptake) is 7.5 µg/mL.

On to `CCCCC(OC(=O)CC(C)C)c1ccccc1C(=O)SSCC(NC(C)=O)C(=O)[O-].[Na+]` (stereo not given), for which the results for the Drug metabolism in [23] and in data set [9] were 201.1 µg/mL and 41 µg/mL, respectively. The Drug uptake entry in data set [22] (iv, 1 min, dose 80 µmol/kg) is reported as “Not Active”. The half-life at 500 µM on Liver carboxylesterase [1] came out at 0.22 h.

Consider `CCCCC(OC(=O)C(C)C)c1ccccc1C(=O)SSCC(NC(C)=O)C(=O)[O-].[Na+]` (stereo not given), for which the half-life at 500 µM at Liver carboxylesterase [1] amounted to 0.225 h.
